Key:
Male Sprague-Dawley rats [1] = experiment: Discriminative stimulus effects of chlordiazepoxide in rats (drug discrimination); settings: for CDP-like effects (drug discrimination): compared with diazepam or triazolam; for Antianxiety/abuse liability: ratio of lowest effective anxiolytic dose (situational anxiety) and lowest effective dose producing chlordiazepoxide-like effects in drug discrimination
GABAA/α1 receptors = GABAA/α1 receptors (Homo sapiens, UniProt P14867+P18507); settings: cited from earlier work
GABAA/α3 = GABAA/α3 (Homo sapiens, UniProt P18507+P34903); settings: cited from earlier work
GABAA/α2 = GABAA/α2 (Homo sapiens, UniProt P18507+P47869); settings: cited from earlier work
GABAA/α5 receptors = GABAA/α5 receptors (Homo sapiens, UniProt P18507+P31644); settings: cited from earlier work
Male Sprague-Dawley rats [2] = experiment: Rotorod performance in rats; settings: for ataxia (rotorod): compared with diazepam or triazolam; for Antianxiety/ataxia: ratio of lowest effective anxiolytic dose (situational anxiety) and lowest effective dose producing side effects in rotorod, PO
Procedure: Rotorod Performance in Rats
Male Sprague-Dawley rats, weighing 180-200 grams at the beginning of the experiment were purchased from Charles River Laboratories (Wilmington, Mass.). The animals were housed in groups of four in a colony room maintained at constant temperature (21±2° C.) and humidity (50±10%). The room was illuminated 12 hours per day (lights on at 0600 h). The rats had ad libitum access to food and water. The degree of muscle coordination or balance (i.e., ataxia) was determined using a standard accelerating rotorod treadmill (Ugo Basile, Comerio-Varese, Italy or Columbus Instruments, Columbus, Ohio) that was 6 cm in diameter, 24 cm above the base, and run from an initial speed of 2 rpm to a maximum speed of 20 rpm. The time each animal remained on the rotating rod was automatically recorded, up to a maximum of 5 minutes.
(§1) Drug Administration: All drugs were administered PO 20-60 minutes before behavioral testing.
(§2) Data Analysis: Results were expressed as the mean±1 SEM. All data were subjected to analysis of variance (ANOVA) followed by individual mean comparisons using Fisher's Least Significant Difference Test (Kirk, 1968) where appropriate. The significance level was set at p<0.05.
The time on the rod for each rat was recorded. Compounds producing ataxia (motor incoordination) decrease the time spent on the rod compared with vehicle-treated animals.

Male Sprague-Dawley rats [3] = experiment: Open-field locomotor activity in rats; settings: for sedative or hypnotic effects (locomotor activity): compared with diazepam or triazolam; for Antianxiety/sedation: ratio of lowest effective anxiolytic dose (situational anxiety) and lowest effective dose producing side effects in locomotor activity, PO
Procedure: Open-Field Locomotor Activity in Rats
Male Sprague-Dawley rats, weighing 250-290 grams at the beginning of the experiment were purchased from Charles River Laboratories (Wilmington, Mass.). The animals were housed in groups of four in a colony room maintained at constant temperature (21±2° C.) and humidity (50±10%). The room was illuminated 12 hours per day (lights on at 0600 h). The rats had ad libitum access to food and water. The testing apparatus consisted of Plexiglas chambers (42×42×30 cm) equipped with Digiscan activity monitors (Omnitech Electronics, Columbus, Ohio) that detect interruptions of 16 photobeams spaced 2.5 cm apart and 2.5 cm above the floor. Horizontal activity was monitored for 60 minutes.
as §1, §2
Rats were placed in an open field and the total distance covered by the rat was measured. The test duration was 60 minutes. Compounds producing sedative effects decrease the distance covered.

Male CF1 mice = experiment: Protection from pentylenetetrazole-induced seizures; type: in vivo, mouse; settings: for PTZ Seizures, effective dose: PO 60 min before pentylenetetrazole 125 mg/kg s.c.; for anticonvulsant effects against PTZ-induced seizures: PTZ 125 mg/kg
Procedure: Protection from Pentylenetetrazole-Induced Seizures
Male CF1 mice weighing 20-22 g at the time of the experiment were purchased from Charles River Laboratories (Wilmington, Mass.). Pentylenetetrazole (Sigma Chemical Co.) was administered at 125 mg/kg s.c. The number of animals surviving was recorded at 30 minutes and 60 minutes after administration of pentylenetetrazole.
Drug Administration: All drugs were administered PO 60 minutes before administration of pentyenetetrazole.
Data Analysis: The data are presented as the percent of animals protected from death. The data were analyzed by Chi Square statistics. The significance level was set at p<0.05.
Mice treated with certain compounds of the present invention were subjected to pentylenetetrazole (PTZ) at 125 mg/kg to induce seizures. The percent of animals protected from death within one hour of PTZ was measured.

GABAA/α5 receptors, sequence (P31644 32-462): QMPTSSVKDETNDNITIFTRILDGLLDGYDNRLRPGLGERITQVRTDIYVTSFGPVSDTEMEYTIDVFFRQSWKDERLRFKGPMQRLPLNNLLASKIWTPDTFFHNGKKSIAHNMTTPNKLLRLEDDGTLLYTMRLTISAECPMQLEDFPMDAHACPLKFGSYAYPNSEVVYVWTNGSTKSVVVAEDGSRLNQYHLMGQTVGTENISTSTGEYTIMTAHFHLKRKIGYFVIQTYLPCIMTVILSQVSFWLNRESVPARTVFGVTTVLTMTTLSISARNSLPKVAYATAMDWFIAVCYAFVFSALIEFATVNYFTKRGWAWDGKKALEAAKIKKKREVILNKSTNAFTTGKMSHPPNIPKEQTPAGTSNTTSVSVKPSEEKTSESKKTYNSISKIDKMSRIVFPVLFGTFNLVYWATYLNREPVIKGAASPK
GABAA/α5 receptors, sequence (P28472 26-473 partner): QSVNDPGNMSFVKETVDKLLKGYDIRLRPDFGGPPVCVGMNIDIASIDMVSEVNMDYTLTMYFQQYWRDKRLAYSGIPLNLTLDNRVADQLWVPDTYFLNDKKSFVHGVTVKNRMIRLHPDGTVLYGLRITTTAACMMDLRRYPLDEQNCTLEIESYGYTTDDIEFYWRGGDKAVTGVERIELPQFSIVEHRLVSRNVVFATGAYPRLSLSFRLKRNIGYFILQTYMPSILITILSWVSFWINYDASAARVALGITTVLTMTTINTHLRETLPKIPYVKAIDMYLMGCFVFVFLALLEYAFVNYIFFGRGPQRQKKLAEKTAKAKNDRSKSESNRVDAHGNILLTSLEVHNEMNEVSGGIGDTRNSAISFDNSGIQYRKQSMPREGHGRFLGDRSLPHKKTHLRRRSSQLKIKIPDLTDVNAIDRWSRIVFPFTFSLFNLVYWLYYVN
GABAA/α5 receptors, sequence (P18507 40-475): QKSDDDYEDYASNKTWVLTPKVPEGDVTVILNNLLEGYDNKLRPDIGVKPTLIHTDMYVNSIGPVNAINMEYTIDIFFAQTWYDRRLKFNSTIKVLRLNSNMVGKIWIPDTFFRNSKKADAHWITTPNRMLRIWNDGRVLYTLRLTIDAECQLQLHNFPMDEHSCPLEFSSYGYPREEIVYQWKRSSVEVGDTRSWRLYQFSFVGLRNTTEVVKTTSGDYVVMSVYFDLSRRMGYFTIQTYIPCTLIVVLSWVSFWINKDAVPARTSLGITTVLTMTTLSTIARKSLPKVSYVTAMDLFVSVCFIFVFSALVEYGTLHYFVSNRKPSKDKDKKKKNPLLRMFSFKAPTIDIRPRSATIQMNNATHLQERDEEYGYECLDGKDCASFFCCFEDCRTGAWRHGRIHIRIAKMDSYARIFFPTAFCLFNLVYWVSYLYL
GABAA/α1 receptors, sequence (P14867 28-456): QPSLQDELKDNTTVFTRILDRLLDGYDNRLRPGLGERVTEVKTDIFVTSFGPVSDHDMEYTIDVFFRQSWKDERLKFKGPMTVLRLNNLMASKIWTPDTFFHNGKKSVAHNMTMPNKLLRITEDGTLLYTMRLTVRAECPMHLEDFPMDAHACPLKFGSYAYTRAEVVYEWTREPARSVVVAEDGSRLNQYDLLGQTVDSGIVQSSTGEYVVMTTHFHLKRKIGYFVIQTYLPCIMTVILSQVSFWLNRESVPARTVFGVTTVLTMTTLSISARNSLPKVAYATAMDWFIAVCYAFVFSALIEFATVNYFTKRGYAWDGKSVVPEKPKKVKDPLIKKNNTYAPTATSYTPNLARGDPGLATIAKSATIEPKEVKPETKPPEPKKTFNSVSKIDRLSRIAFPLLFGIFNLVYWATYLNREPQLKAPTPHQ
GABAA/α1 receptors, sequence (P28472 26-473 partner): as the sequence (P28472 26-473 partner) above
GABAA/α1 receptors, sequence (P18507 40-475): as the sequence (P18507 40-475) above
GABAA/α2, sequence (P47869 29-451): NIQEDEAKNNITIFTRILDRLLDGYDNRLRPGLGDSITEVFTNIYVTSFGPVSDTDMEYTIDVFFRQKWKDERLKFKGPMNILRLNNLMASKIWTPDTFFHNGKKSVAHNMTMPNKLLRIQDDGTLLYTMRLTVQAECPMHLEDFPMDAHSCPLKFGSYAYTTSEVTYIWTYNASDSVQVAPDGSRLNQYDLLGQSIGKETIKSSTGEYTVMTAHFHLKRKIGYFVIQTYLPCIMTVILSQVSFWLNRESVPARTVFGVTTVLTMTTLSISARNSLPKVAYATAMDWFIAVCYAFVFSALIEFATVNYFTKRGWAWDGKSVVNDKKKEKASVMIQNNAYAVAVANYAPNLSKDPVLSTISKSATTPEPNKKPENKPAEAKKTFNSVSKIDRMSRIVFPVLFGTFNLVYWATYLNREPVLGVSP
GABAA/α2, sequence (P28472 26-473 partner): as the sequence (P28472 26-473 partner) above
GABAA/α2, sequence (P18507 40-475): as the sequence (P18507 40-475) above
GABAA/α3, sequence (P34903 29-492): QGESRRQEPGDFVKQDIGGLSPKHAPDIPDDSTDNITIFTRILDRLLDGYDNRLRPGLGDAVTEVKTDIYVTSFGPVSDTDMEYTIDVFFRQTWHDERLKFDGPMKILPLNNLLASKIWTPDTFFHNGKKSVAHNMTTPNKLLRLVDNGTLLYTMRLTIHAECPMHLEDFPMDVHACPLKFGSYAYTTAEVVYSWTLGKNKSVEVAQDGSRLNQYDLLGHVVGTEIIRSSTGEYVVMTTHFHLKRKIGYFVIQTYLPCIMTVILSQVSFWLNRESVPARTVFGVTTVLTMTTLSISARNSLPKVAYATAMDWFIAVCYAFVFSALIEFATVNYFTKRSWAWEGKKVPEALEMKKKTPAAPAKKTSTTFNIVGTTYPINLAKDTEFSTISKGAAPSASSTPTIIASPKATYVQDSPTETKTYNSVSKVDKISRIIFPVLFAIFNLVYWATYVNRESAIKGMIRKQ
GABAA/α3, sequence (P28472 26-473 partner): as the sequence (P28472 26-473 partner) above
GABAA/α3, sequence (P18507 40-475): as the sequence (P18507 40-475) above

SMILES	CDP-like effects (drug discrimination) (Male Sprague-Dawley rats [1])	Antianxiety/abuse liability (Male Sprague-Dawley rats [1])	Ki (GABAA/α1 receptors) [nM]	Ki (GABAA/α3) [nM]	Ki (GABAA/α2) [nM]	Ki (GABAA/α5 receptors) [nM]	ataxia (rotorod) (Male Sprague-Dawley rats [2])	Antianxiety/ataxia (Male Sprague-Dawley rats [2])	sedative or hypnotic effects (locomotor activity) (Male Sprague-Dawley rats [3])	Antianxiety/sedation (Male Sprague-Dawley rats [3])	PTZ Seizures, effective dose (Male CF1 mice)	anticonvulsant effects against PTZ-induced seizures (Male CF1 mice)
C#Cc1ccc2c(c1)C(c1ccccc1)=NCC(=O)N2C [QH-ii-066, 1-Methyl-7-acetyleno-5-phenyl-1,3-dihydro-benzo [e]-1,4-diazepin-2-one]	less potent in producing CDP-like effects than diazepam or triazolam	30	> 70	< 50	< 50	< 10	less potent in producing ataxia than diazepam or triazolam	>100	less effective in producing sedative or hypnotic effects than diazepam or triazolam	100	<30 mg/kg	anticonvulsant effects against PTZ-induced seizures at doses comparable to those for diazepam and triazolam
C#Cc1ccc2c(c1)C(c1ccccc1)=NCc1c(C(=O)OCC)ncn1-2 [XHe-ii-053, Ethyl 8-acetylenyl-6-phenyl-4H-benzo[f]imidazo[1,5-a][1,4]diazepine-3-carboxylate]	less potent in producing CDP-like effects than diazepam or triazolam	>300					less potent in producing ataxia than diazepam or triazolam	>300	less effective in producing sedative or hypnotic effects than diazepam or triazolam	>300	≦100 mg/kg	effective against PTZ-induced seizures
C#Cc1ccc2c(c1)C(c1ccccc1Cl)=NCc1nnc(C)n1-2 [XLi-JY-DMH, 8-Acetyleno-5-(2′-chlorophenyl)-1-methyl-4H-s-triazolo-[4,3-a]-1,4-benzodiazepine]	less potent in producing CDP-like effects than diazepam or triazolam	1000					less potent in producing ataxia than diazepam or triazolam	10000	less effective in producing sedative or hypnotic effects than diazepam or triazolam	10000	<1.0 mg/kg	anticonvulsant effects against PTZ-induced seizures at doses comparable to those for diazepam and triazolam
